How the values were obtained:
CHK2(R145W) = target: T1, CHK2(R145W) (Homo sapiens, UniProt O96017, R145W); assay: Kinome profiler screen; assay type: biochemical; details: at 20,000 nM inhibitor; kinase activity remaining
T1 construct: purchased Millipore KinaseProfiler

PRK2 = target: T2, PRK2 (Homo sapiens, UniProt Q16513); assay: Kinome profiler screen; assay type: biochemical; details: at 20,000 nM inhibitor; kinase activity remaining
T2 construct: purchased Millipore KinaseProfiler

LIMK1 = target: T3, LIMK1 (Homo sapiens, UniProt P53667); assay: Kinome profiler screen; assay type: biochemical; details: at 20,000 nM inhibitor; kinase activity remaining
T3 construct: purchased Millipore KinaseProfiler

Plk1 = target: T4, Plk1 (Homo sapiens, UniProt P53350); assay: Kinome profiler screen; assay type: biochemical; details: at 20,000 nM inhibitor; kinase activity remaining
T4 construct: purchased Millipore KinaseProfiler

PAK4 = target: T5, PAK4 (Homo sapiens, UniProt O96013); assay: Kinome profiler screen; assay type: biochemical; details: at 20,000 nM inhibitor; kinase activity remaining
T5 construct: purchased Millipore KinaseProfiler

PKG1β = target: T6, PKG1β (Homo sapiens, UniProt Q13976); assay: Kinome profiler screen; assay type: biochemical; details: at 20,000 nM inhibitor; kinase activity remaining
T6 construct: purchased Millipore KinaseProfiler

Arg(m) = target: T7, Arg(m) (Mus musculus, UniProt Q4JIM5); assay: Kinome profiler screen; assay type: biochemical; details: at 20,000 nM inhibitor; kinase activity remaining
T7 construct: purchased Millipore KinaseProfiler

HIPK2 = target: T8, HIPK2 (Homo sapiens, UniProt Q9H2X6); assay: Kinome profiler screen; assay type: biochemical; details: at 20,000 nM inhibitor; kinase activity remaining
T8 construct: purchased Millipore KinaseProfiler

PKCι = target: T9, PKCι (Homo sapiens, UniProt P41743); assay: Kinome profiler screen; assay type: biochemical; details: at 20,000 nM inhibitor; kinase activity remaining
T9 construct: purchased Millipore KinaseProfiler

[1] = target: T10, PI3 Kinase (p110α/p85α)(m) (Mus musculus, UniProt P42337); assay: Kinome profiler screen; assay type: biochemical; details: at 20,000 nM inhibitor; kinase activity remaining
T10 construct: purchased Millipore KinaseProfiler

EphA2 = target: T11, EphA2 (Homo sapiens, UniProt P29317); assay: Kinome profiler screen; assay type: biochemical; details: at 20,000 nM inhibitor; kinase activity remaining
T11 construct: purchased Millipore KinaseProfiler

CDK7/cyclinH/MAT1 = target: T12, CDK7/cyclinH/MAT1 (Homo sapiens, UniProt P50613); assay: Kinome profiler screen; assay type: biochemical; details: at 20,000 nM inhibitor; kinase activity remaining
T12 construct: purchased Millipore KinaseProfiler

TAO1 = target: T13, TAO1 (Homo sapiens, UniProt Q7L7X3); assay: Kinome profiler screen; assay type: biochemical; details: at 20,000 nM inhibitor; kinase activity remaining
T13 construct: purchased Millipore KinaseProfiler

Blk(m) = target: T14, Blk(m) (Mus musculus, UniProt P16277); assay: Kinome profiler screen; assay type: biochemical; details: at 20,000 nM inhibitor; kinase activity remaining
T14 construct: purchased Millipore KinaseProfiler

ULK2 = target: T15, ULK2 (Homo sapiens, UniProt Q8IYT8); assay: Kinome profiler screen; assay type: biochemical; details: at 20,000 nM inhibitor; kinase activity remaining
T15 construct: purchased Millipore KinaseProfiler

PI3 Kinase (p110δ/p85α) = target: T16, PI3 Kinase (p110δ/p85α) (Homo sapiens, UniProt O00329); assay: Kinome profiler screen; assay type: biochemical; details: at 20,000 nM inhibitor; kinase activity remaining
T16 construct: purchased Millipore KinaseProfiler
T16 sequence (O00329 whole entry): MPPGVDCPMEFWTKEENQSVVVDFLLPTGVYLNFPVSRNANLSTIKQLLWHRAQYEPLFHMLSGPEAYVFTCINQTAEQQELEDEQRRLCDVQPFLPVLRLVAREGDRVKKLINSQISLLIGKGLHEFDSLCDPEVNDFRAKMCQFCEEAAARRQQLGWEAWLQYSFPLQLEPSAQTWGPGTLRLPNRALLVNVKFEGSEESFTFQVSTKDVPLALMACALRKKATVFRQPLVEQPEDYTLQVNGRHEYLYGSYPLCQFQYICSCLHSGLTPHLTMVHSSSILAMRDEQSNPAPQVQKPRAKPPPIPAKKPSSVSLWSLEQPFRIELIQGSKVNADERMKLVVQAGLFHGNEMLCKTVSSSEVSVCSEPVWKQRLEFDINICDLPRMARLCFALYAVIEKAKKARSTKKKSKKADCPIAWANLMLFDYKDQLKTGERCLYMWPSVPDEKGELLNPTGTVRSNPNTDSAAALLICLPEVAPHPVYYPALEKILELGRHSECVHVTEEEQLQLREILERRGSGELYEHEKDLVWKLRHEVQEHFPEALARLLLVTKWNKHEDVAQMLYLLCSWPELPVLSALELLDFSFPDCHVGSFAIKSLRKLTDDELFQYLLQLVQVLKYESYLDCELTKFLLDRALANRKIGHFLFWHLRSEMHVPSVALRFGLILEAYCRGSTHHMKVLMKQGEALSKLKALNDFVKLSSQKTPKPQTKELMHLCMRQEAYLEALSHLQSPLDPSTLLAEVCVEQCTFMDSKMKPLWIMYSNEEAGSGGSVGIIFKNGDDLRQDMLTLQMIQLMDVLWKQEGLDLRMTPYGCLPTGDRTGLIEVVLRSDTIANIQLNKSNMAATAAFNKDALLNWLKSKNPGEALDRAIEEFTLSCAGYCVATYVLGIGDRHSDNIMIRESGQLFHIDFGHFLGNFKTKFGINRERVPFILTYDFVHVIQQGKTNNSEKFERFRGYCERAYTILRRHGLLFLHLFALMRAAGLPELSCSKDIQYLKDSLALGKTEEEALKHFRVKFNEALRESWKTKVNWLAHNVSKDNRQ
T16 sequence (P27986 whole entry partner): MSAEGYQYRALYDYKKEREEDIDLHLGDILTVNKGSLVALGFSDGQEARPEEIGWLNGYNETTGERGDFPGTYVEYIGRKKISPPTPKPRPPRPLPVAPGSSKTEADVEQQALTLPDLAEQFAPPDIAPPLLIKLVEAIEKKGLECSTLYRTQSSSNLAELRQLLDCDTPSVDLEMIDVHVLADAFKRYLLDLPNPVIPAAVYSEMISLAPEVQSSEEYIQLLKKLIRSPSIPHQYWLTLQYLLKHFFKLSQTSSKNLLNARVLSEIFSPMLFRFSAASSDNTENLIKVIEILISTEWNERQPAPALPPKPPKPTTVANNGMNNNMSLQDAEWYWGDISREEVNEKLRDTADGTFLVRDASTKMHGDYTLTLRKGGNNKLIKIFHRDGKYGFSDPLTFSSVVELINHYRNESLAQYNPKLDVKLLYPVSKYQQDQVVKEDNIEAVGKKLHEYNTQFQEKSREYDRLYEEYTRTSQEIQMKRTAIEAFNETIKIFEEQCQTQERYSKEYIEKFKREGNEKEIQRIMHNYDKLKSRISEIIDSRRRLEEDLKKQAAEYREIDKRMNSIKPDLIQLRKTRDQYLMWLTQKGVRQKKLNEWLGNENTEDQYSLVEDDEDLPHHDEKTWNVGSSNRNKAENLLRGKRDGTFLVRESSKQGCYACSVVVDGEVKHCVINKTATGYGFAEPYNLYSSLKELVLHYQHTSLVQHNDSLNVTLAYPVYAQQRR

CDK2/cyclinE = target: T17, CDK2/cyclinE (Homo sapiens, UniProt P24941); assay: Kinome profiler screen; assay type: biochemical; details: at 20,000 nM inhibitor; kinase activity remaining
T17 construct: purchased Millipore KinaseProfiler

SIK = target: T18, SIK (Homo sapiens, UniProt P57059); assay: Kinome profiler screen; assay type: biochemical; details: at 20,000 nM inhibitor; kinase activity remaining
T18 construct: purchased Millipore KinaseProfiler

CaMKIIγ = target: T19, CaMKIIγ (Homo sapiens, UniProt Q13555); assay: Kinome profiler screen; assay type: biochemical; details: at 20,000 nM inhibitor; kinase activity remaining
T19 construct: purchased Millipore KinaseProfiler

PRAK = target: T20, PRAK (Homo sapiens, UniProt Q8IW41); assay: Kinome profiler screen; assay type: biochemical; details: at 20,000 nM inhibitor; kinase activity remaining
T20 construct: purchased Millipore KinaseProfiler

Abl(m) = target: T21, Abl(m) (Mus musculus, UniProt P00520); assay: Kinome profiler screen; assay type: biochemical; details: at 20,000 nM inhibitor; kinase activity remaining
T21 construct: purchased Millipore KinaseProfiler
T21 sequence (P00520 27-1123 limits assumed): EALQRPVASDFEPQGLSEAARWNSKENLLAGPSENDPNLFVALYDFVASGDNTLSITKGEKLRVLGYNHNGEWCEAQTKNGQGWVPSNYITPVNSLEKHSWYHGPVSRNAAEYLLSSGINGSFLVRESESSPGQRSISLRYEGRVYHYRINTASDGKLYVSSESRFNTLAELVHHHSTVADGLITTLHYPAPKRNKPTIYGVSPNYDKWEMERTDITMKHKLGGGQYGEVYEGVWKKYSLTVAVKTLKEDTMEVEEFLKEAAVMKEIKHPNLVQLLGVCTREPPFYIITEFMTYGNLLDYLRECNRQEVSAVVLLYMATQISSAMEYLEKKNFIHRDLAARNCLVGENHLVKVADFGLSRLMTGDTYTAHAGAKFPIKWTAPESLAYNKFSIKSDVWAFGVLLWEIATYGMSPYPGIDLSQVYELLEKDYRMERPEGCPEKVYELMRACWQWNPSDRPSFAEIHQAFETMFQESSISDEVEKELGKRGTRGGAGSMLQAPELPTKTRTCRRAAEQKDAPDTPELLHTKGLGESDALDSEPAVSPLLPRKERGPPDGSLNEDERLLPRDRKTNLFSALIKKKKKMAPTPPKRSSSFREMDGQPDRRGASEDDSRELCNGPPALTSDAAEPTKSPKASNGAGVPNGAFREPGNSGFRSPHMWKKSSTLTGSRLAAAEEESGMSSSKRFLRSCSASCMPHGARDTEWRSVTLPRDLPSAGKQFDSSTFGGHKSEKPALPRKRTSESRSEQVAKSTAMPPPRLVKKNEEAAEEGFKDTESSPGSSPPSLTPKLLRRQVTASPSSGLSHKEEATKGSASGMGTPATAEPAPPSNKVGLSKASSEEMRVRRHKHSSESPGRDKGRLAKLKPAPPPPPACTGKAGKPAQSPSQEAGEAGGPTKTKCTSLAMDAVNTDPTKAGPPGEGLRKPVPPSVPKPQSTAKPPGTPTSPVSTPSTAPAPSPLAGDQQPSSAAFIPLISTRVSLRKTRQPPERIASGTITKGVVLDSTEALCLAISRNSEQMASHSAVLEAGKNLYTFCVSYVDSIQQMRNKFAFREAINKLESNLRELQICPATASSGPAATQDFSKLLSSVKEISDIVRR

CDK1/cyclinB = target: T22, CDK1/cyclinB (Homo sapiens, UniProt P06493); assay: Kinome profiler screen; assay type: biochemical; details: at 20,000 nM inhibitor; kinase activity remaining
T22 construct: purchased Millipore KinaseProfiler

PAK5 = target: T23, PAK5 (Homo sapiens, UniProt Q9P286); assay: Kinome profiler screen; assay type: biochemical; details: at 20,000 nM inhibitor; kinase activity remaining
T23 construct: purchased Millipore KinaseProfiler

WNK3 = target: T24, WNK3 (Homo sapiens, UniProt Q9BYP7); assay: Kinome profiler screen; assay type: biochemical; details: at 20,000 nM inhibitor; kinase activity remaining
T24 construct: purchased Millipore KinaseProfiler

cKit = target: T25, cKit (Homo sapiens, UniProt P10721); assay: Kinome profiler screen; assay type: biochemical; details: at 20,000 nM inhibitor; kinase activity remaining
T25 construct: purchased Millipore KinaseProfiler

GRK5 = target: T26, GRK5 (Homo sapiens, UniProt P34947); assay: Kinome profiler screen; assay type: biochemical; details: at 20,000 nM inhibitor; kinase activity remaining; read-out: % Activity
T26 construct: purchased Millipore KinaseProfiler
T26 sequence (P34947 whole entry): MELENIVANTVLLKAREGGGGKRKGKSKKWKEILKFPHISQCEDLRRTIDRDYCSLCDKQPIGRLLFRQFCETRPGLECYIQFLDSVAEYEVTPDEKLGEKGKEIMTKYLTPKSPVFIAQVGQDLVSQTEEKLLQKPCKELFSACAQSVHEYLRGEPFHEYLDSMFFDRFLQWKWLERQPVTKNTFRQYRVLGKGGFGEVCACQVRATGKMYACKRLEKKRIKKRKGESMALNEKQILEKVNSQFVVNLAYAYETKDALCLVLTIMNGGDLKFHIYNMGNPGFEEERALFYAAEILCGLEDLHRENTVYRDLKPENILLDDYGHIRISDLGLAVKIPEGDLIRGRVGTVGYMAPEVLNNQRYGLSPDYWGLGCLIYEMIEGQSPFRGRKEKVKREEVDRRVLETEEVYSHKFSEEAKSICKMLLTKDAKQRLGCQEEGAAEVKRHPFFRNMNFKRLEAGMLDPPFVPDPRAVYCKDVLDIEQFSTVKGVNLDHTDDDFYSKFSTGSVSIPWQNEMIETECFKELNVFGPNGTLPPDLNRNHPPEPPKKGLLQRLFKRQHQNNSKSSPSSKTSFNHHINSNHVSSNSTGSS

cSRC = target: T27, cSRC (Homo sapiens, UniProt P12931); assay: Kinome profiler screen; assay type: biochemical; details: at 20,000 nM inhibitor; kinase activity remaining
T27 construct: purchased Millipore KinaseProfiler

reference memory = assay: 2-day radial arm water maze (RAWM), Aβ42-infused mice; assay type: in vivo, C57BL/6J mice; details: 5 mg/Kg i.p.
CaMKIV = target: T28, CaMKIV (Homo sapiens, UniProt Q16566); assay: Kinome profiler screen; assay type: biochemical; details: at 20,000 nM inhibitor; kinase activity remaining
T28 construct: purchased Millipore KinaseProfiler

EphB1 = target: T29, EphB1 (Homo sapiens, UniProt P54762); assay: Kinome profiler screen; assay type: biochemical; details: at 20,000 nM inhibitor; kinase activity remaining; read-out: % Activity
T29 construct: purchased Millipore KinaseProfiler

PDGFRβ = target: T30, PDGFRβ (Homo sapiens, UniProt P09619); assay: Kinome profiler screen; assay type: biochemical; details: at 20,000 nM inhibitor; kinase activity remaining
T30 construct: purchased Millipore KinaseProfiler

NEK11 = target: T31, NEK11 (Homo sapiens, UniProt Q8NG66); assay: Kinome profiler screen; assay type: biochemical; details: at 20,000 nM inhibitor; kinase activity remaining
T31 construct: purchased Millipore KinaseProfiler

Met(D1246N) = target: T32, Met(D1246N) (Homo sapiens, UniProt P08581, D1228N); assay: Kinome profiler screen; assay type: biochemical; details: at 20,000 nM inhibitor; kinase activity remaining
T32 construct: purchased Millipore KinaseProfiler

IR, activated = target: T33, IR, activated (Homo sapiens, UniProt P06213); assay: Kinome profiler screen; assay type: biochemical; details: at 20,000 nM inhibitor; kinase activity remaining
T33 construct: purchased Millipore KinaseProfiler

SGK2 = target: T34, SGK2 (Homo sapiens, UniProt Q9HBY8); assay: Kinome profiler screen; assay type: biochemical; details: at 20,000 nM inhibitor; kinase activity remaining
T34 construct: purchased Millipore KinaseProfiler

CDK5/p35 = target: T35, CDK5/p35 (Homo sapiens, UniProt Q00535); assay: Kinome profiler screen; assay type: biochemical; details: at 20,000 nM inhibitor; kinase activity remaining
T35 construct: purchased Millipore KinaseProfiler

PAK6 = target: T36, PAK6 (Homo sapiens, UniProt Q9NQU5); assay: Kinome profiler screen; assay type: biochemical; details: at 20,000 nM inhibitor; kinase activity remaining
T36 construct: purchased Millipore KinaseProfiler
T36 sequence (Q9NQU5 whole entry): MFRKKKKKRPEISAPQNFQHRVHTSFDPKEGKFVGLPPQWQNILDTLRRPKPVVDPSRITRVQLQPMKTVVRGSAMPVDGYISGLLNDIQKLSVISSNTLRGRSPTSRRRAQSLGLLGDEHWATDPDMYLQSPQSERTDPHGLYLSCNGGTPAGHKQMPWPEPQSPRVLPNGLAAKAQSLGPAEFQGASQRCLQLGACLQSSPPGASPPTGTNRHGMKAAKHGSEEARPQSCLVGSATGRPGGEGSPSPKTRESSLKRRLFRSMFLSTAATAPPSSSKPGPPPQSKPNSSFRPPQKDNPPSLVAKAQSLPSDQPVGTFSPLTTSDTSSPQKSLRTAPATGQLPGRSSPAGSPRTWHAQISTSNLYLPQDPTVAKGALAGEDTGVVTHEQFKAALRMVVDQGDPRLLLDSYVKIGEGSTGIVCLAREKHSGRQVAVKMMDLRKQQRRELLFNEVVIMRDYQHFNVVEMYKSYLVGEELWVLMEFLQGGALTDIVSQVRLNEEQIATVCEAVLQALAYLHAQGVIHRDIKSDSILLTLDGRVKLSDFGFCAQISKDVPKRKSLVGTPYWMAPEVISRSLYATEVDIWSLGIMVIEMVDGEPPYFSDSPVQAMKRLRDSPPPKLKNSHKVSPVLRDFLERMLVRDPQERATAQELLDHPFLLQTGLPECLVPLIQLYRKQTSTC

PKG1α = target: T37, PKG1α (Homo sapiens, UniProt Q13976); assay: Kinome profiler screen; assay type: biochemical; details: at 20,000 nM inhibitor; kinase activity remaining
T37 construct: purchased Millipore KinaseProfiler

ASK1 = target: T38, ASK1 (Homo sapiens, UniProt Q99683); assay: Kinome profiler screen; assay type: biochemical; details: at 20,000 nM inhibitor; kinase activity remaining
T38 construct: purchased Millipore KinaseProfiler

CHK1 = target: T39, CHK1 (Homo sapiens, UniProt O14757); assay: Kinome profiler screen; assay type: biochemical; details: at 20,000 nM inhibitor; kinase activity remaining
T39 construct: purchased Millipore KinaseProfiler
T39 sequence (O14757 whole entry): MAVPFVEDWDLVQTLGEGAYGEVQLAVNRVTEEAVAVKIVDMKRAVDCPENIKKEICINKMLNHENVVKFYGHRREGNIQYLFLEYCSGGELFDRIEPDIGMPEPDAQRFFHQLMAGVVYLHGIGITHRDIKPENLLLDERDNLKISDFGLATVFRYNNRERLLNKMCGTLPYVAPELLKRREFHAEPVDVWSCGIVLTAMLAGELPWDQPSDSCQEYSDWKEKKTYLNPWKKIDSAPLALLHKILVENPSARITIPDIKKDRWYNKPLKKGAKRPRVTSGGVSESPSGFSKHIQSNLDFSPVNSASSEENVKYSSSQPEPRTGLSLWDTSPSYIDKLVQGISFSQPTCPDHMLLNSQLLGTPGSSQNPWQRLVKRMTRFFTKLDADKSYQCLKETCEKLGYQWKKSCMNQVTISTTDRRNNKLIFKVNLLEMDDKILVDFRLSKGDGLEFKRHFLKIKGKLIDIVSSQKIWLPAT

Rse = target: T40, Rse (Homo sapiens, UniProt Q06418); assay: Kinome profiler screen; assay type: biochemical; details: at 20,000 nM inhibitor; kinase activity remaining
T40 construct: purchased Millipore KinaseProfiler

AMPKα1 = target: T41, AMPKα1 (Homo sapiens, UniProt Q13131); assay: Kinome profiler screen; assay type: biochemical; details: at 20,000 nM inhibitor; kinase activity remaining
T41 construct: purchased Millipore KinaseProfiler

TSSK1 = target: T42, TSSK1 (Homo sapiens, UniProt Q9BXA7); assay: Kinome profiler screen; assay type: biochemical; details: at 20,000 nM inhibitor; kinase activity remaining
T42 construct: purchased Millipore KinaseProfiler
T42 sequence (Q9BXA7 whole entry): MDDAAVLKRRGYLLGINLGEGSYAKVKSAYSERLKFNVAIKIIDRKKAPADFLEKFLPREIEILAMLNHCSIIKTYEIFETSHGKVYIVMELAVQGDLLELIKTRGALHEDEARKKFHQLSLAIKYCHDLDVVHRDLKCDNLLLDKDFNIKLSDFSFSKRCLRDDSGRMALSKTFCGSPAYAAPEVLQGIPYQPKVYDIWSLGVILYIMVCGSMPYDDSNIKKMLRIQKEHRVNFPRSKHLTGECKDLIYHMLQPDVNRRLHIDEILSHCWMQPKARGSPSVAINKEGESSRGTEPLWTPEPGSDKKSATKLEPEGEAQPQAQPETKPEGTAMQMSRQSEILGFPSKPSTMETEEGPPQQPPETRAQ

PKCμ = target: T43, PKCμ (Homo sapiens, UniProt Q15139); assay: Kinome profiler screen; assay type: biochemical; details: at 20,000 nM inhibitor; kinase activity remaining
T43 construct: purchased Millipore KinaseProfiler

Q: For `CN(C)c1cc(-c2ccncc2)c(-c2cccc3ccccc23)nn1` [MW181, N,N-dimethyl-6-(naphthalen-1-yl)-5-(pyridin-4-yl)pyridazin-3-amine], which activity at 20 µM (CHK2(R145W)) is on record?
A: 91%

Q: And the activity at 20 µM (PRK2)?
A: 96%

Q: What about the activity at 20 µM (LIMK1) of the same compound?
A: 95%

Q: What about the activity at 20 µM (Plk1) of the same compound?
A: 110%

Q: And the activity at 20 µM (PAK4)?
A: 109%

Q: And the activity at 20 µM (PKG1β)?
A: 97%

Q: What about the activity at 20 µM (Arg(m)) of the same compound?
A: 96%

Q: And the activity at 20 µM (HIPK2)?
A: 102%

Q: And the activity at 20 µM (PKCι)?
A: 82%

Q: What about the activity at 20 µM [1] of the same compound?
A: 102%

Q: And the activity at 20 µM (EphA2)?
A: 91%

Q: And the activity at 20 µM (CDK7/cyclinH/MAT1)?
A: 99%

Q: What about the activity at 20 µM (TAO1) of the same compound?
A: 98%

Q: And the activity at 20 µM (Blk(m))?
A: 100%

Q: And the activity at 20 µM (ULK2)?
A: 101%

Q: And the activity at 20 µM (PI3 Kinase (p110δ/p85α))?
A: 101%

Q: What about the activity at 20 µM (CDK2/cyclinE) of the same compound?
A: 118%

Q: What about the activity at 20 µM (SIK) of the same compound?
A: 92%

Q: What about the activity at 20 µM (CaMKIIγ) of the same compound?
A: 100%

Q: And the activity at 20 µM (PRAK)?
A: 105%

Q: And the activity at 20 µM (Abl(m))?
A: 88%

Q: And the activity at 20 µM (CDK1/cyclinB)?
A: 113%

Q: What about the activity at 20 µM (PAK5) of the same compound?
A: 104%

Q: And the activity at 20 µM (WNK3)?
A: 89%

Q: What about the activity at 20 µM (cKit) of the same compound?
A: 106%

Q: What about the activity at 20 µM (GRK5) of the same compound?
A: 100%

Q: And the activity at 20 µM (cSRC)?
A: 101%

Q: And the “reference memory deficit, RAWM” value (reference memory)?
A: ameliorated the reference memory deficit

Q: And the activity at 20 µM (CaMKIV)?
A: 105%

Q: What about the activity at 20 µM (EphB1) of the same compound?
A: 100%

Q: What about the activity at 20 µM (PDGFRβ) of the same compound?
A: 99%

Q: And the activity at 20 µM (NEK11)?
A: 121%

Q: And the activity at 20 µM (Met(D1246N))?
A: 104%

Q: And the activity at 20 µM (IR, activated)?
A: 100%

Q: And the activity at 20 µM (SGK2)?
A: 102%

Q: What about the activity at 20 µM (CDK5/p35) of the same compound?
A: 95%

Q: And the activity at 20 µM (PAK6)?
A: 101%

Q: What about the activity at 20 µM (PKG1α) of the same compound?
A: 97%

Q: And the activity at 20 µM (ASK1)?
A: 109%

Q: And the activity at 20 µM (CHK1)?
A: 115%

Q: And the activity at 20 µM (Rse)?
A: 109%

Q: And the activity at 20 µM (AMPKα1)?
A: 105%

Q: What about the activity at 20 µM (TSSK1) of the same compound?
A: 88%

Q: What about the activity at 20 µM (PKCμ) of the same compound?
A: 70%

Reference: article PMC3694096, “Development of Novel In Vivo Chemical Probes to Address CNS Protein Kinase Involvement in Synaptic Dysfunction” (PLoS ONE, 2013)
